From patent publication US20250127162A1, “METHODS AND COMPOSITIONS FOR CONTROLLING PESTS IN RICE” (Globachem NV, priority 2022, published 2025)

Experiments:
Chilo suppressalis = experiment: Rice field trials, control of Chilo suppressalis (Example 1, Trials 1-2, Spain); assay type: in vivo; conditions: applications AB
Protocol: (§1) All applications were made with an EC formulation containing 650 g/L of pelargonic acid (e.g., 685 g/L of 95% purity pelargonic acid), an anionic emulsifier and a branched fatty acid ester solvent.
Trials 1˜4 assessing the use of pelargonic acid for controlling Chilo suppressalis in rice were conducted in Spain and Thailand.
Application A was made to the crops at the beginning of infestations; for these trials, Stage BBCH 59; Application B was made 14 days after Application A.
(§2) Trial 1 was conducted in Spain using a water volume of 300 L/ha of water per application unless otherwise indicated. Pest Incidence/Number of Insects (PESINC) and Pest Severity (PESSEV) as a Percent of Untreated Check (% UNCK) as well as Phytotoxicity were assessed at various treatment evaluation intervals.
as §2, with “2” for “1”

Diabrotica speciosa = experiment: Dry bean field trials, Diabrotica speciosa damage and yield (Example 4); assay type: in vivo; conditions: 150 L water/ha, two applications 7 d apart; for % Damage, % UNCK: 28 DAB, Lambda-cyhalothrin 100 at 0.15 L/ha; for Yield: plot
Description: as §1
Diabrotica speciosa is a major pest in rice.
Dry Beans—Diabrotica speciosa

[1] = Trial 1, 14 DAB, water volume 150 L/ha
[2] = Trial 1, 14 DAB, water volume 300 L/ha, rate in treatment name
[3] = Trial 1, 27 DAB, water volume 150 L/ha
[4] = Trial 1, 27 DAB, water volume 300 L/ha, rate in treatment name, listed as PA 585 g/ha
[5] = Trial 1, 27 DAB, water volume 300 L/ha, rate in treatment name, listed as PA 975 g/ha
[6] = Trial 1, 27 DAB, water volume 300 L/ha, rate in treatment name, listed as PA 1300 g/ha
[7] = Trial 1, 27 DAB, water volume 300 L/ha, rate in treatment name, listed as PA 2600 g/ha
[8] = Trial 1, 40 DAB, water volume 150 L/ha
[9] = Trial 1, 40 DAB, water volume 300 L/ha, rate in treatment name, listed as PA 585 g/ha
[10] = Trial 1, 40 DAB, water volume 300 L/ha, rate in treatment name, listed as PA 975 g/ha
[11] = Trial 1, 40 DAB, water volume 300 L/ha, rate in treatment name, listed as PA 1300 g/ha
[12] = Trial 1, 40 DAB, water volume 300 L/ha, rate in treatment name, listed as PA 2600 g/ha
[13] = Trial 1, dry bean, listed as PA 812.5 g/ha
[14] = Trial 1, dry bean, listed as PA 975 g/ha
[15] = Trial 1, dry bean, listed as PA 1137.5 g/ha
[16] = Trial 2, dry bean, listed as PA 812.5 g/ha
[17] = Trial 2, dry bean, listed as PA 975 g/ha
[18] = Trial 2, dry bean, listed as PA 1137.5 g/ha

SMILES: CCCCCCCCC(=O)O [PA 650 g/ha, pelargonic acid]
- PESINC (Pest Incidence/Number of Insects) % UNCK (% efficacy) (Chilo suppressalis; [1]): 75 % UNCK
- PESSEV (Pest Severity) % UNCK (Chilo suppressalis; [1]): 75 % UNCK
- PESINC (Pest Incidence/Number of Insects) % UNCK (% efficacy) (Chilo suppressalis; [2]): 75 % UNCK
- PESSEV (Pest Severity) % UNCK (Chilo suppressalis; [2]): 75 % UNCK
- PESINC (Pest Incidence/Number of Insects) % UNCK (% efficacy) (Chilo suppressalis; [3]): 42.08 % UNCK
- PESSEV (Pest Severity) % UNCK (Chilo suppressalis; [3]): 42.08 % UNCK
- PESINC (Pest Incidence/Number of Insects) % UNCK (% efficacy) (Chilo suppressalis; [4]): 30.83 % UNCK
- PESSEV (Pest Severity) % UNCK (Chilo suppressalis; [4]): 30.83 % UNCK
- PESINC (Pest Incidence/Number of Insects) % UNCK (% efficacy) (Chilo suppressalis; [5]): 42.08 % UNCK
- PESSEV (Pest Severity) % UNCK (Chilo suppressalis; [5]): 42.08 % UNCK
- PESINC (Pest Incidence/Number of Insects) % UNCK (% efficacy) (Chilo suppressalis; [6]): 46.25 % UNCK
- PESSEV (Pest Severity) % UNCK (Chilo suppressalis; [6]): 50 % UNCK
- PESINC (Pest Incidence/Number of Insects) % UNCK (% efficacy) (Chilo suppressalis; [7]): 59.58 % UNCK
- PESSEV (Pest Severity) % UNCK (Chilo suppressalis; [7]): 59.58 % UNCK
- PESINC (Pest Incidence/Number of Insects) % UNCK (% efficacy) (Chilo suppressalis; [8]): 43.75 % UNCK
- PESSEV (Pest Severity) % UNCK (Chilo suppressalis; [8]): 43.75 % UNCK
- PESINC (Pest Incidence/Number of Insects) % UNCK (% efficacy) (Chilo suppressalis; [9]): 27.71 % UNCK
- PESSEV (Pest Severity) % UNCK (Chilo suppressalis; [9]): 29.21 % UNCK
- PESINC (Pest Incidence/Number of Insects) % UNCK (% efficacy) (Chilo suppressalis; [10]): 46.88 % UNCK
- PESSEV (Pest Severity) % UNCK (Chilo suppressalis; [10]): 46.88 % UNCK
- PESINC (Pest Incidence/Number of Insects) % UNCK (% efficacy) (Chilo suppressalis; [11]): 47.5 % UNCK
- PESSEV (Pest Severity) % UNCK (Chilo suppressalis; [11]): 47.5 % UNCK
- PESINC (Pest Incidence/Number of Insects) % UNCK (% efficacy) (Chilo suppressalis; [12]): 63.13 % UNCK
- PESSEV (Pest Severity) % UNCK (Chilo suppressalis; [12]): 63.13 % UNCK
- PESSEV (Pest Severity) % UNCK (Chilo suppressalis; Trial 2, 14 DAB, water volume 150 L/ha): 100 % UNCK
- PESSEV (Pest Severity) % UNCK (Chilo suppressalis; Trial 2, 14 DAB, water volume 300 L/ha, rate in treatment name): 100 % UNCK
- PESINC (Pest Incidence/Number of Insects) % UNCK (Chilo suppressalis; Trial 2, 15 DAB, water volume 150 L/ha): 100 % UNCK
- PESINC (Pest Incidence/Number of Insects) % UNCK (Chilo suppressalis; Trial 2, 15 DAB, water volume 300 L/ha, rate in treatment name): 100 % UNCK
- PESSEV (Pest Severity) % UNCK (Chilo suppressalis; Trial 2, 27 DAB, water volume 150 L/ha): 45.31 % UNCK
- PESSEV (Pest Severity) % UNCK (Chilo suppressalis; Trial 2, 27 DAB, water volume 300 L/ha, rate in treatment name, listed as PA 585 g/ha): 55.21 % UNCK
- PESSEV (Pest Severity) % UNCK (Chilo suppressalis; Trial 2, 27 DAB, water volume 300 L/ha, rate in treatment name, listed as PA 975 g/ha): 57.29 % UNCK
- PESSEV (Pest Severity) % UNCK (Chilo suppressalis; Trial 2, 27 DAB, water volume 300 L/ha, rate in treatment name, listed as PA 1300 g/ha): 69.27 % UNCK
- PESSEV (Pest Severity) % UNCK (Chilo suppressalis; Trial 2, 27 DAB, water volume 300 L/ha, rate in treatment name, listed as PA 2600 g/ha): 77.6 % UNCK
- PESINC (Pest Incidence/Number of Insects) % UNCK (Chilo suppressalis; Trial 2, 28 DAB, water volume 150 L/ha): 40 % UNCK
- PESINC (Pest Incidence/Number of Insects) % UNCK (Chilo suppressalis; Trial 2, 28 DAB, water volume 300 L/ha, rate in treatment name, listed as PA 585 g/ha): 45 % UNCK
- PESINC (Pest Incidence/Number of Insects) % UNCK (Chilo suppressalis; Trial 2, 28 DAB, water volume 300 L/ha, rate in treatment name, listed as PA 975 g/ha): 45 % UNCK
- PESINC (Pest Incidence/Number of Insects) % UNCK (Chilo suppressalis; Trial 2, 28 DAB, water volume 300 L/ha, rate in treatment name, listed as PA 1300 g/ha): 57.5 % UNCK
- PESINC (Pest Incidence/Number of Insects) % UNCK (Chilo suppressalis; Trial 2, 28 DAB, water volume 300 L/ha, rate in treatment name, listed as PA 2600 g/ha): 74.17 % UNCK
- PESSEV (Pest Severity) % UNCK (Chilo suppressalis; Trial 2, 40 DAB, water volume 150 L/ha): 57.29 % UNCK
- PESSEV (Pest Severity) % UNCK (Chilo suppressalis; Trial 2, 40 DAB, water volume 300 L/ha, rate in treatment name, listed as PA 585 g/ha): 62.5 % UNCK
- PESSEV (Pest Severity) % UNCK (Chilo suppressalis; Trial 2, 40 DAB, water volume 300 L/ha, rate in treatment name, listed as PA 975 g/ha): 68.75 % UNCK
- PESSEV (Pest Severity) % UNCK (Chilo suppressalis; Trial 2, 40 DAB, water volume 300 L/ha, rate in treatment name, listed as PA 1300 g/ha): 68.75 % UNCK
- PESSEV (Pest Severity) % UNCK (Chilo suppressalis; Trial 2, 40 DAB, water volume 300 L/ha, rate in treatment name, listed as PA 2600 g/ha): 79.38 % UNCK
- PESINC (Pest Incidence/Number of Insects) % UNCK (Chilo suppressalis; Trial 2, 41 DAB, water volume 150 L/ha): 39.29 % UNCK
- PESINC (Pest Incidence/Number of Insects) % UNCK (Chilo suppressalis; Trial 2, 41 DAB, water volume 300 L/ha, rate in treatment name, listed as PA 585 g/ha): 52.86 % UNCK
- PESINC (Pest Incidence/Number of Insects) % UNCK (Chilo suppressalis; Trial 2, 41 DAB, water volume 300 L/ha, rate in treatment name, listed as PA 975 g/ha): 52.86 % UNCK
- PESINC (Pest Incidence/Number of Insects) % UNCK (Chilo suppressalis; Trial 2, 41 DAB, water volume 300 L/ha, rate in treatment name, listed as PA 1300 g/ha): 57.86 % UNCK
- PESINC (Pest Incidence/Number of Insects) % UNCK (Chilo suppressalis; Trial 2, 41 DAB, water volume 300 L/ha, rate in treatment name, listed as PA 2600 g/ha): 67.86 % UNCK
- % Damage, % UNCK (Diabrotica speciosa; Trial 1, dry bean): 27.81a % UNCK
- % Damage, % UNCK (Diabrotica speciosa; [13]): 82.01b % UNCK
- % Damage, % UNCK (Diabrotica speciosa; [14]): 86.96b % UNCK
- % Damage, % UNCK (Diabrotica speciosa; [15]): 88.90b % UNCK
- Yield (Diabrotica speciosa; Trial 1, dry bean): 2.09b Ton/ha
- Yield (Diabrotica speciosa; [13]): 2.28ab Ton/ha
- Yield (Diabrotica speciosa; [14]): 2.37ab Ton/ha
- Yield (Diabrotica speciosa; [15]): 2.34ab Ton/ha
- % Damage, % UNCK (Diabrotica speciosa; Trial 2, dry bean): 39.58b % UNCK
- % Damage, % UNCK (Diabrotica speciosa; [16]): 81.64c % UNCK
- % Damage, % UNCK (Diabrotica speciosa; [17]): 87.8c % UNCK
- % Damage, % UNCK (Diabrotica speciosa; [18]): 88.11c % UNCK
- Yield (Diabrotica speciosa; Trial 2, dry bean): 2.11cd Ton/ha
- Yield (Diabrotica speciosa; [16]): 2.15cd Ton/ha
- Yield (Diabrotica speciosa; [17]): 2.19bc Ton/ha
- Yield (Diabrotica speciosa; [18]): 2.29a Ton/ha
